Assay results as given in patent publication US10328092B2, “Methods and compositions for treatment of drug addiction” (The Royal Institution for the Advancement of Learning / …, priority 2015, dated 2019).

What was measured:
[1] = test system: primary rat microglia cultures; assay: TNFα mRNA in primary rat microglia cultures; type: cell-based
Protocol: For tissue, total RNA from the ventral striatum was extracted and isolated by RNAqueous-4PCR total RNA isolation kit (Ambion, AM1914), according to manufacturer's instructions. For microglia and astrocyte cultures, total RNA was isolated by RNeasy kit (Qiagen, 74136). For all sample types, 0.5 μg of total RNA was used for cDNA synthesis with Quantitect Reverse Transcription Kit (Qiagen, 205313), and quantitative RT-PCR was performed with Fast SYBR-Green Master Mix (Applied Biosystems) detected by StepOne Plus RealTime PCR system (Applied Biosystems). The sequences of qPCR primers used for mRNA quantification in this study were obtained from Integrated DNA Technologies, and are as follows: mouse TNFα forward, […] (SEQ ID NO: 1) [200 nM]; mouse TNFα reverse, […] (SEQ ID NO: 2) [200 nM]; mouse GAPDH forward, […] (SEQ ID NO: 3) [300 nM]; mouse GAPDH reverse, […] (SEQ ID NO: 4) [300 nM]; rat TNFα forward, […] (SEQ ID NO: 1) [600 nM]; rat TNFα reverse, […] (SEQ ID NO: 5) [600 nM]; rat cyclophilin forward, […] (SEQ ID NO: 6) [500 nM]; rat cyclophilin reverse, […] (SEQ ID NO: 7) [500 nM]. After 40 cycles, the Ct values were determined. To normalize the samples, ΔCt between TNFα and GADPH or cyclophilin Ct values was calculated. The x-fold difference in expression between the different treatments was then determined by subtraction of the ΔCt values and termed ΔΔCt. Finally, the total change was calculated as 2-ΔΔct and the relative amount compared with control samples was deducted.
Mixed microglia-astrocyte primary cultures were prepared from the striatum of postnatal rats (day 0), essentially as described (Beattie et al., 2002). Briefly, tissue was dissociated by […], and cells were seeded in glia media (MEM containing 5% FBS, 1.5% high sucrose MEM and 0.1% glutamax) on culture flasks (Corning) coated with poly-D lysine (Sigma) and placed in a humidified incubator at 37 C with 5% CO2. Neurons were removed by mechanical disruption and the medium was changed at day 1, and every 5-7 days after. […]

[2] = test system: primary rat astrocyte cultures; details: dopamine 0.1 μm with ascorbic acid, 3 hours
Protocol: For tissue, total RNA from the ventral striatum was extracted and isolated by RNAqueous-4PCR total RNA isolation kit (Ambion, AM1914), according to manufacturer's instructions. For microglia and astrocyte cultures, total RNA was isolated by RNeasy kit (Qiagen, 74136). For all sample types, 0.5 μg of total RNA was used for cDNA synthesis with Quantitect Reverse Transcription Kit (Qiagen, 205313), and quantitative RT-PCR was performed with Fast SYBR-Green Master Mix (Applied Biosystems) detected by StepOne Plus RealTime PCR system (Applied Biosystems). The sequences of qPCR primers used for mRNA quantification in this study were obtained from Integrated DNA Technologies, and are as follows: mouse TNFα forward, […] (SEQ ID NO: 1) [200 nM]; mouse TNFα reverse, […] (SEQ ID NO: 2) [200 nM]; mouse GAPDH forward, […] (SEQ ID NO: 3) [300 nM]; mouse GAPDH reverse, […] (SEQ ID NO: 4) [300 nM]; rat TNFα forward, […] (SEQ ID NO: 1) [600 nM]; rat TNFα reverse, […] […] After 40 cycles, the Ct values were determined. To normalize the samples, ΔCt between TNFα and GADPH or cyclophilin Ct values was calculated. The x-fold difference in expression between the different treatments was then determined by subtraction of the ΔCt values and termed ΔΔCt. Finally, the total change was calculated as 2-ΔΔct and the relative amount compared with control samples was deducted. […]

[3] = test system: adult microglial cells; assay: TNFα mRNA in cultured adult mouse microglia; type: cell-based; details: dopamine 0.1 μm, 3 hours; not significant p=0.057
Protocol: (SEQ ID NO: 1) [200 nM]; mouse TNFα reverse, […] (SEQ ID NO: 2) [200 nM]; mouse GAPDH forward, […] (SEQ ID NO: 3) [300 nM]; mouse GAPDH reverse, […] (SEQ ID NO: 4) [300 nM]; rat TNFα forward, […] (SEQ ID NO: 1) [600 nM]; rat TNFα reverse, […] (SEQ ID NO: 5) [600 nM]; rat cyclophilin forward, […] (SEQ ID NO: 6) [500 nM]; rat cyclophilin reverse, […] (SEQ ID NO: 7) [500 nM]. After 40 cycles, the Ct values were determined.
Adult male C57BL/6 mice (8-12 weeks) underwent cardiac perfusion with Hank's Balanced Salt Solution (HBSS) and whole brains were removed. Cortices and striata were dissected, cut in to small pieces and subjected to enzymatic digestion with the Neural Tissue Dissociation Kit (P) (Miltenyi Biotech, US cat no. 130-092-628), as per manufactures instructions. Tissue was homogenised and resuspended in 35% isotonic Percoll, overlayed with HBSS and spun at 400 g for 45 mins for the removal of myelin. Pure populations of microglial cells were obtained through magnetic bead cell sorting using CD11b microbeads (Miltenyi, cat no. 130-093-634). Aliquots from positive and negative bead selected fractions were removed for cell staining to assess cell purity. […] Cells were acquired using a BD FACS Canto II and analyzed using BD FACSDiva software. […]

For `Cl.NCCc1ccc(O)c(O)c1` [dopamine, dopamine hydrochloride], the “TNFα mRNA in microglia cultures” value [1] was “significantly increased”, the “TNFα production in astrocytes” value [2] was “does not alter” and the “TNFα mRNA, cultured adult microglia” value [3] was 160 % of control.
